Measured values published in patent publication US20260216196A1, “IMIDAZO[1,2-A]PYRIDINE AND IMIDAZO[1,2-A]PYRAZINE DERIVATIVES AS MLLT1 AND MLLT3 INHIBITORS” (DARK BLUE THERAPEUTICS LTD., priority 2022, published 2026).
Structures can show the parent of a compound that is named as a salt.

What was measured:
MLLT1 = MLLT1 (Homo sapiens, UniProt Q03111); assay: biochemical; details: MLLT1 assay IC50 (nM), HTRF, 6His tagged MLLT1, biotinylated H3K9cro peptide; compound 20 μM to 20 nM, 11 data points in duplicate
MLLT3 = MLLT3 (Homo sapiens, UniProt P42568); assay: HTRF IC50 determination assay, MLLT3 / H3K9cro peptide displacement; details: MLLT3 assay IC50 (nM), 6His tagged MLLT3, biotinylated H3K9cro peptide, compound 20 μM to 20 nM, 11 data points in duplicate
Sequence of MLLT3 (P42568 whole entry): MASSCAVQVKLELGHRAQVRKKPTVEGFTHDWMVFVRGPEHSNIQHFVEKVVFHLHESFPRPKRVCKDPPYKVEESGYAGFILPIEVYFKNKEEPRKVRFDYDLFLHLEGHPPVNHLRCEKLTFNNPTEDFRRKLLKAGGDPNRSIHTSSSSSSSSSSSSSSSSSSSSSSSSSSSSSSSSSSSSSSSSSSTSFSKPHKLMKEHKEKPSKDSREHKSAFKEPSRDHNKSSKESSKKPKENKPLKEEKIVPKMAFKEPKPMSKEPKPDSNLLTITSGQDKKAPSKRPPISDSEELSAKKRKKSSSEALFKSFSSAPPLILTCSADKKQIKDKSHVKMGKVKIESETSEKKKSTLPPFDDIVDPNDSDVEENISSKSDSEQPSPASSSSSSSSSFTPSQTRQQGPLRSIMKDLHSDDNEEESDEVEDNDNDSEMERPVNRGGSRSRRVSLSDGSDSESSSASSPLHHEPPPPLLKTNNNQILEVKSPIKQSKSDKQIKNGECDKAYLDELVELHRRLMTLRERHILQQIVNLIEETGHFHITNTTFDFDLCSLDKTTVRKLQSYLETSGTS

Sequence of MLLT1 (Q03111 whole entry): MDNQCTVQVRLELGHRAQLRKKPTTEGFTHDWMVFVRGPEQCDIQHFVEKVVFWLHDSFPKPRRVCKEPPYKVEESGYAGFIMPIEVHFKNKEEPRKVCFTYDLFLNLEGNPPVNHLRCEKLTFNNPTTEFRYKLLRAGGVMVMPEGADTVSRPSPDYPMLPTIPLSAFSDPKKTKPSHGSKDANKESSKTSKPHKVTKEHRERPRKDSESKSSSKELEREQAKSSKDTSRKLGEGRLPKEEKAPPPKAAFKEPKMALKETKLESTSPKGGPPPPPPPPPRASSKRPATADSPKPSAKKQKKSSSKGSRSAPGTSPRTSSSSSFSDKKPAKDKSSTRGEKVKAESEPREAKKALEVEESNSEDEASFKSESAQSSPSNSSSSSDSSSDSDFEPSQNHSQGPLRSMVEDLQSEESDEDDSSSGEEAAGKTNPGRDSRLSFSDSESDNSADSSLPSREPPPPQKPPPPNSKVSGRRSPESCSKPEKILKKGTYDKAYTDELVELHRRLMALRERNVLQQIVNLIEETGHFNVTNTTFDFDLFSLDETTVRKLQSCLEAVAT

IC50 (MLLT1)	IC50 (MLLT3)	Compound
150 to 1500 nM	150 to 1500 nM	CN1CCCC1c1cn2cc(NC(=O)c3ccc4c(c3)c(C3CCNC3)nn4C)ccc2n1 (racemic) [Example 56, rac-1-methyl-N-(2-(1-methylpyrrolidin-2-yl)imidazo[1,2-a]pyridin-6-yl)-3-(pyrrolidin-3-yl)-1H-indazole-5-carboxamide formate]
150 to 1500 nM	1500 to 20000 nM	CN1CCCC1c1cn2cc(NC(=O)c3ccc4ncoc4c3)ccc2n1 (racemic) [Example 37, rac-N-[2-(1-methylpyrrolidin-2-yl)imidazo[1,2-a]pyridin-6-yl]-1,3-benzoxazole-6-carboxamide]
150 to 1500 nM	150 to 1500 nM	CN1C2CCCCC2C[C@@H]1c1cn2cc(NC(=O)c3ccc4c(cnn4C)c3)ccc2n1 (stereo partly drawn) [Example 58, 1-methyl-N-{2-[(2R)-1-methyl-octahydro-1H-indol-2-yl]imidazo[1,2-a]pyridin-6-yl}-1H-indazole-5-carboxamide]
150 to 1500 nM	150 to 1500 nM	Cc1nn(C)c2cc(C(=O)Nc3cn4cc([C@H]5CCCN5C)nc4cn3)c(F)cc12 [Example 73, 5-fluoro-1,3-dimethyl-N-{2-[(2R)-1-methylpyrrolidin-2-yl]imidazo[1,2-a]pyrazin-6-yl}-1H-indazole-6-carboxamide]
150 to 1500 nM	150 to 1500 nM	CN1CCCC1c1cn2cc(NC(=O)c3cc4ccncc4cc3F)ccc2n1 (single isomer, unassigned) [Example 26]
	< 150 nM	CCC1CC(c2cn3cc(NC(=O)c4ccc5c(C)nn(C)c5c4)ncc3n2)N(C)C1 (single isomer, unassigned) [Example 79, N-{2-[4-ethyl-1-methylpyrrolidin-2-yl]imidazo[1,2-a]pyrazin-6-yl}-1,3-dimethyl-1H-indazole-6-carboxamide]
150 to 1500 nM	150 to 1500 nM	COCCc1nn(C)c2ccc(C(=O)Nc3ccc4nc(C5CCCN5C)cn4c3)cc12 (racemic) [Example 49, rac-3-(2-methoxyethyl)-1-methyl-N-[2-(1-methylpyrrolidin-2-yl)imidazo[1,2-a]pyridin-6-yl]-1 H-indazole-5-carboxamide]
1500 to 20000 nM	1500 to 20000 nM	COc1ccc(-c2nc(C(=O)Nc3ccc4nc(C5CCCN5C)cn4c3)cs2)cc1 (racemic) [Example 38, rac-2-(4-methoxyphenyl)-N-[2-(1-methylpyrrolidin-2-yl)imidazo[1,2-a]pyridin-6-yl]-1,3-thiazole-4-carboxamide]
150 to 1500 nM	150 to 1500 nM	CN1CCCC1c1cn2cc(NC(=O)c3ccc(-c4cncs4)cc3F)ccc2n1 (single isomer, unassigned) [Example 8]
1500 to 20000 nM	> 20000 nM	CN1CCCC1c1cn2cc(NC(=O)c3ccc4nc[nH]c4n3)ccc2n1 (racemic) [Example 36, rac-N-[2-(1-methylpyrrolidin-2-yl)imidazo[1,2-a]pyridin-6-yl]-3H-imidazo[4,5-b]pyridine-5-carboxamide]
1500 to 20000 nM	1500 to 20000 nM	Cc1nn(C)c2cc(C(=O)Nc3cn4cc(C5CC(C)(C)CN5C)nc4cn3)ccc12 (single isomer, unassigned) [Example 81]
150 to 1500 nM	150 to 1500 nM	Cc1nc(NC(=O)c2cc3cnc(C)n3cc2F)cn2cc([C@H]3CCCN3C)nc12 [Example 93, 6-fluoro-3-methyl-N-{8-methyl-2-[(2R)-1-methylpyrrolidin-2-yl]imidazo[1,2-a]pyrazin-6-yl}imidazo[1,5-a]pyridine-7-carboxamide]
	150 to 1500 nM	CCc1nn(C)c2ccc(C(=O)Nc3ccc4nc(C5CCCN5C)cn4c3)cc12 (racemic) [Example 61, rac-3-ethyl-1-methyl-N-[2-(1-methylpyrrolidin-2-yl)imidazo[1,2-a]pyridin-6-yl]-1H-indazole-5-carboxamide]
1500 to 20000 nM	> 20000 nM	CN1CCCCC1c1cn2cc(NC(=O)c3ccc4c(cnn4C)c3)ccc2n1 (single isomer, unassigned) [Example 27]
150 to 1500 nM	150 to 1500 nM	Cc1nn(C)c2cc(C(=O)Nc3ccc4nc(C5CCCN5C)cn4c3)ccc12 (racemic) [Example 14, rac-1,3-dimethyl-N-[2-(1-methylpyrrolidin-2-yl)imidazo[1,2-a]pyridin-6-yl]-1H-indazole-6-carboxamide]
150 to 1500 nM	1500 to 20000 nM	CN1CCCC1c1cn2cc(NC(=O)c3cc(-c4cnccn4)ccc3F)ccc2n1 (single isomer, unassigned) [Example 24]
1500 to 20000 nM	1500 to 20000 nM	Cc1noc2nc(C(=O)Nc3ccc4nc(C5CCCN5C)cn4c3)ccc12 (racemic) [Example 50, rac-3-methyl-N-[2-(1-methylpyrrolidin-2-yl)imidazo[1,2-a]pyridin-6-yl]-[1,2]oxazolo[5,4-b]pyridine-6-carboxamide]
150 to 1500 nM	1500 to 20000 nM	CN1CCCC1c1cn2cc(NC(=O)c3ccc(-n4cccn4)cc3)ccc2n1 (racemic) [Example 40, rac-N-[2-(1-methylpyrrolidin-2-yl)imidazo[1,2-a]pyridin-6-yl]-4-(1H-pyrazol-1-yl)benzamide]
< 150 nM	< 150 nM	Cc1nn(C)c2cc(C(=O)Nc3cn4cc(C5CC(C)(C)CN5C)nc4cn3)ccc12 (single isomer, unassigned) [Example 82]
150 to 1500 nM	150 to 1500 nM	Cc1nn(C)c2cc(C(=O)Nc3ccc4nc(C5CCCN5C)cn4c3)c(F)cc12 (racemic) [Example 30, rac-5-fluoro-1,3-dimethyl-N-[2-(1-methylpyrrolidin-2-yl)imidazo[1,2-a]pyridin-6-yllindazole-6-carboxamide]
	150 to 1500 nM	CCC1CC(c2cn3cc(NC(=O)c4ccc5c(C)nn(C)c5c4)ncc3n2)N(C)C1 (single isomer, unassigned) [Example 78, N-{2-[4-ethyl-1-methylpyrrolidin-2-yl]imidazo[1,2-a]pyrazin-6-yl}-1,3-dimethyl-1H-indazole-6-carboxamide]
1500 to 20000 nM	1500 to 20000 nM	COc1ccc2nc(C(=O)Nc3ccc4nc(C5CCCN5C)cn4c3)sc2c1 (racemic) [Example 17, rac-6-methoxy-N-[2-(1-methylpyrrolidin-2-yl)imidazo[1,2-a]pyridin-6-yl]-1,3-benzothiazole-2-carboxamide]
< 150 nM	150 to 1500 nM	Cc1nc(NC(=O)c2cc3cnn(C)c3cc2F)cn2cc([C@H]3CCCN3C)nc12 [Example 91, 6-fluoro-1-methyl-N-{8-methyl-2-[(2R)-1-methylpyrrolidin-2-yl]imidazo[1,2-a]pyrazin-6-yl}indazole-5-carboxamide]
	< 150 nM	CCC1CC(c2cn3cc(NC(=O)c4ccc5c(C)nn(C)c5c4)ncc3n2)N(C)C1 (single isomer, unassigned) [Example 80, N-{2-[4-ethyl-1-methylpyrrolidin-2-yl]imidazo[1,2-a]pyrazin-6-yl}-1,3-dimethyl-1H-indazole-6-carboxamide]
	1500 to 20000 nM	CCC1CC(c2cn3cc(NC(=O)c4ccc5c(C)nn(C)c5c4)ncc3n2)N(C)C1 (single isomer, unassigned) [Example 77, N-{2-[4-ethyl-1-methylpyrrolidin-2-yl]imidazo[1,2-a]pyrazin-6-yl}-1,3-dimethyl-1H-indazole-6-carboxamide]
